# From patent US20240032546A1, “BRASSICA SEED MEAL (BSM)-BASED BIO-HERBICIDE FOR INHIBITING WEED GERMINATION, AND PREPARATION METHOD AND USE THEREOF” (Institute of Soil Science, CAS, priority 2022, published 2024)
# Tested on: field weeds (Portulaca oleracea L., Bothriochloa ischaemum L., Eleusine indica L., Setaria viridis L., and Amaranthus spinosus L.)
# Assay: Field soil test of weed growth and germination inhibition
# Type: in vivo
# Conditions: after 1 week, dazomet 40 g/m2, BSM-based bio-herbicide 0.8 wt %
# Method: Dazomet was added to the field soil at 40 g/m 2 of soil (as a treatment 1). The BSM-based bio-herbicide (Example 1) was added to another field soil at 0.8 wt % of the BSM per mu of soil (1 mu=300,000 jin) (as a treatment 2). The same area of field soil without adding any exogenous substances was used as a control. After 1 week, the weed growth of the two treatments and the control (field weeds included Portulaca oleracea L., Bothriochloa ischaemum L., Eleusine indica L., Setaria viridis L., and Amaranthus spinosus L.) was counted, and the germination inhibition rate of weed seeds was calculated.
compound,measurement,setting,value
"CN1CSC(=S)N(C)C1 [dazomet, Dazomet]",inhibition rate to the field weeds compared with the control,,86.84%
same,weight of field weeds,control 1.550 kg/m^2,0.204 kg/m^2
